This note sets out measurements from patent US20100249234A1, “METHODS OF REDUCING VIRULENCE IN BACTERIA” (UWM RESEARCH FOUNDATION, INC., priority 2007, published 2010).

Holding throughout (type): cell-based, Dickeya dadantii 3937 (Ech3937)
The test system of one assay is hrpA promoter. As to the kind of experiment: hrpA promoter activity, GFP reporter plasmid phrpA, flow cytometry (FACS). To be noted: for expression of hrpA, GFP intensity (Mean Fluorescence Intensity), Ech3937 carrying phrpA: MM + 0.1 mM compound. As for the experimental part: FACS analysis of promoter activity of dspE, hrpA, hrpL, hrpN, and hrpS was carried out as described (Peng et al., 2006). Briefly, the wild-type Ech3937 and the mutant strains carrying the promoter reporter plasmid were grown on LB broth at 28° C. overnight and transferred to appropriate media. For FACS analysis, samples were collected by centrifugation, washed with 1× phosphate buffer saline (PBS) at 13,000 rpm for 1 min, and re-suspended in 1×PBS to ca 10^6 CFU/ml prior to being run in a FACS Calibur flow cytometer (BD Biosciences, CA). Three replicates were performed for each treatment.
To identify potential compounds that repress activation of T3SS, analogs and isomers of TCA and intermediates of salicylic acid and phenypropanoid biosynthesis pathways in plants were further screened for their effect on Ech3937 hrpA expression by flow cytometry (Table 9). A green fluorescent protein (GFP) reporter plasmid phrpA (pProbe-AT derivative with PCR fragment containing hrpA promoter region) was constructed, resulting in a transcriptional fusion of hrpA promoter with GFP gene. Bacterial cells containing phrpA plasmid were grown in MM supplemented with 0.1 mM of each compound. GFP intensity, which is a measurement of hrpA promoter activity, was measured by flow cytometry.
Background: In flow cytometry, cells or beads pass a laser one at a time.

The subject of another assay is hrpN promoter. As to the kind of experiment: hrpN promoter activity, GFP reporter plasmid phrpN, flow cytometry (FACS).
The next assay deals with Ech3937. As to the kind of experiment: Growth of Ech3937 in MM supplemented with compound. To be noted: 0.05, 0.1 and 0.2 mM in MM (FIGS. 2A, 2B). The source says:
Phenolic compounds constitute an important class of organic substances produced by plants. The phenolic compound SA is a signaling molecule that plays a role in host defenses. OCA and TCA are the biosynthetic precursors of SA and are also reported to induce the expression of defense-related genes in plants. OCA, TCA, and SA were examined to elucidate their effects on the expression of T3SS genes. The expression of the T3SS gene hrpN was examined in MM and MM supplemented with OCA, TCA, and SA, at concentrations of 0.05, 0.1, and 0.2 mM, respectively. FIGS. 2A and 2B show the promoter activities of hrpN in Dickeya dadantii 3937 (Ech3937) grown in MM and MM supplemented with 0.05, 0.1, and 0.2 mM OCA, TCA, and SA at 12 h (FIG. 2A) and 24 h (FIG. 2B) post-inoculation. GFP intensity was determined on gated populations of bacterial cells by flow cytometry and analyzed with the Cell Quest software (BD Biosciences, San Jose, Calif.). The growth of Ech3937 in MM supplemented with different concentrations of OCA, TCA and SA was recorded. Compared with MM alone, the average GFP fluorescence intensity of bacterial cells of Ech3937 (phrpN) was increased approximately 4-fold when 0.05 mM of OCA and TCA were added to the medium (FIGS. 2A, 2B).
The expression of the T3SS gene hrpA was further examined in MM and MM supplemented with PCA at concentrations of 0.001, 0.005, 0.01, 0.05 and 0.1 mM respectively. FIGS. 16A and 16B show the promoter activities of hrpA in Dickeya dadantii 3937 (Ech3937) grown in minimum medium (MM) and MM supplemented with different amount of p-coumaric acid (PCA) at 12 h (FIG. 16A) and 24 h (FIG. 16B) post-inoculation. GFP intensity was determined on gated populations of bacterial cells by flow cytometry and analyzed with the Cell Quest software (BD Biosciences, San Jose, Calif.). The growth of Ech3937 in MM supplemented with different concentrations of PCA was recorded. Compared with MM alone, the average GFP fluorescence intensity of bacterial cells of Ech3937 (phrpA) was reduced more than 4-fold when 0.05 and 0.1 mM of PCA were added to the medium (FIGS. 16A, 16B).

On to `O=C(O)[C@@H]1C[C@H]1c1ccccc1` (relative stereo) [trans-2-Phenylcyclopropane-1-carboxylic acid], for which the “expression of hrpA, GFP intensity (Mean Fluorescence Intensity), Ech3937 carrying phrpA” value (from here on “expression of hrpA, GFP intensity”) in the assay with hrpA promoter (6 h (Table 9)) is reported as 7.2 ± 0.1; with hrpA promoter (12 h (Table 9)), 67.0 ± 18.4; in the assay on hrpA promoter (24 h (Table 9)) it was 84.0 ± 14.3.

Regarding `O=C(O)/C=C/c1cccc(O)c1` [m-Coumaric acid], the “expression of hrpA, GFP intensity” value is 12.1 ± 0.0 in the assay on hrpA promoter (6 h (Table 9)), 133.0 ± 38.2 in the assay on hrpA promoter (12 h (Table 9)) and 203.3 ± 9.6 in the assay on hrpA promoter (24 h (Table 9)).

As to `Cc1ccccc1C=CC(=O)O` [2-Methylcinnamic acid], the “expression of hrpA, GFP intensity” value in the assay with hrpA promoter (6 h (Table 9)) is on record as 22.8 ± 0.6; with hrpA promoter (12 h (Table 9)) it was 157.2 ± 11.7; with hrpA promoter (24 h (Table 9)) it was 342.5 ± 16.6.

As to `O=C(O)c1ccccc1O` [SA, salicylic acid, reference compound], the “effect on GFP fluorescence intensity of Ech3937 (phrpN) compared with MM alone” value in the assay with hrpN promoter (0.05, 0.1 and 0.2 mM in MM, 12 h and 24 h (FIGS. 2A, 2B)) is recorded as “did not result in increased GFP fluorescence intensity”. For the same compound, the “GFP Intensity of Ech3937 (phrpN)” value amounted to 53.7 ± 4.0 in the assay on hrpN promoter (MM + 0.2 μM compound, 12 h); 105 ± 28 with hrpN promoter (MM + 0.2 μM compound, 24 h); 49.5 ± 5.9 with hrpN promoter (MM + 0.5 μM compound, 12 h); 99.5 ± 18 in the assay with hrpN promoter (MM + 0.5 μM compound, 24 h); 49.9 ± 2.9 in the assay on hrpN promoter (MM + 5 μM compound, 12 h); 97.7 ± 9.0 in the assay on hrpN promoter (MM + 5 μM compound, 24 h). Also, the “GFP Intensity of Ech3937 (phrpN)” value in the assay with hrpN promoter (MM + 10 μM compound, 12 h) is 52.0 ± 2.3; in the assay on hrpN promoter (MM + 10 μM compound, 24 h), 104 ± 3.1. The “bacterial growth of Ech3937 in supplemented MM” value with Ech3937 is “No reduction of bacterial growth”.

Regarding `O=C(O)C=Cc1ccccc1Cl` [2-Chlorocinnamic acid], the “expression of hrpA, GFP intensity” value in the assay on hrpA promoter (6 h (Table 9)) is reported as 25.7 ± 0.2; in the assay with hrpA promoter (12 h (Table 9)), 166.2 ± 17.8; with hrpA promoter (24 h (Table 9)), 319.8 ± 48.3.

In the case of `O=C(O)/C=C/c1cccnc1` [trans-3-(3-Pyridyl)acrylic acid], the figures for the “expression of hrpA, GFP intensity” value in the assay with hrpA promoter (6 h (Table 9)), in the assay on hrpA promoter (12 h (Table 9)) and in the assay with hrpA promoter (24 h (Table 9)) were 13.1 ± 0.4, 184.9 ± 35.6 and 204.0 ± 16.8, respectively.

For `COC(=O)/C=C/c1ccccc1` [Methyl trans-cinnamate], the “expression of hrpA, GFP intensity” value was found to be 9.7 ± 0.1 in the assay on hrpA promoter (6 h (Table 9)), 135.8 ± 8.1 in the assay with hrpA promoter (12 h (Table 9)) and 219.2 ± 14.5 in the assay with hrpA promoter (24 h (Table 9)).

For `OCC=Cc1ccccc1` [Cinnamyl alcohol], the “effect on expression of hrpA (screen result)” value with hrpA promoter (MM + 0.1 mM compound (Table 9)) is given as “inhibitors of the expression of hrpA”. In addition, the results for the “expression of hrpA, GFP intensity” value with hrpA promoter (6 h (Table 9)), in the assay with hrpA promoter (12 h (Table 9)) and with hrpA promoter (24 h (Table 9)) were 6.3 ± 0.1, 27.8 ± 5.0 and 53.8 ± 2.9, respectively.

As to `O=C(O)/C=C/c1c[nH]c2ccccc12` [trans-3-indoleacrylic acid], the “expression of hrpA, GFP intensity” value was 7.9 ± 0.2 with hrpA promoter (6 h (Table 9)), 23.9 ± 1.3 in the assay on hrpA promoter (12 h (Table 9)) and 121.0 ± 6.2 with hrpA promoter (24 h (Table 9)).

With `O=C(O)COc1ccccc1` [Phenoxyacetic acid], the “expression of hrpA, GFP intensity” value is on record as 18.0 ± 3.1 in the assay with hrpA promoter (6 h (Table 9)), 222.7 ± 64.3 in the assay with hrpA promoter (12 h (Table 9)) and 205.7 ± 11.8 in the assay on hrpA promoter (24 h (Table 9)).

On to `O=C(O)CCc1ccccc1` [Hydrocinnamic acid], for which the “expression of hrpA, GFP intensity” value in the assay on hrpA promoter (6 h (Table 9)) was 13.7 ± 1.0; with hrpA promoter (12 h (Table 9)), 200.3 ± 35.8; in the assay with hrpA promoter (24 h (Table 9)), 213.5 ± 18.9.
